# Measurements: US8703815B2, “Small molecules that covalently modify transthyretin” (The Scripps Research Institute, priority 2009, dated 2014)
# Read-outs that look alike come from different tables or passages of the source.
# Columns and labels:
# [1] = molecular target: T1, WT-TTR (Homo sapiens, UniProt P02766); assay: Acid-mediated WT-TTR fibril formation assay (turbidity at 400 nm); type: biochemical; details: for IC50: % fibril formation after 72 hours, read-out: IC50 (apparent), inhibition of WT-TTR amyloidogenesis; for % Fibril Formation 7.2 μM (WT-TTR): compound 7.2 μM; for % Fibril Formation 7.2 μM (WT-TTR) / % Fibril Formation […] (WT-TTR): pH 4.4, 72 hours, 37° C.; for % Fibril Formation […] (WT-TTR): compound […]
# T1 construct: composed of 127-residue β-sheet-rich subunits; made in house; host or cells: E. coli
# Procedure: The mixtures were vortexed and incubated (maintained) for 18 hours at 25° C.
# [2] = molecular target: T2, TTR in human blood plasma (Homo sapiens, UniProt P02766); assay: Modification of TTR in human blood plasma (immunocapture, RP-HPLC); type: binding; details: compound 10.8 μM, 24 hours, 37° C.; maximum 50%
# T2 construct: RP-HPLC analysis of TTR captured from human plasma; from tissue; host or cells: human blood plasma
# Procedure: Compounds 1-4 (10.8 μM) were incubated for 24 hours at 37° C. with human plasma, wherein the TTR concentration is 3.6-5.4 μM.
# Furthermore, compound A2 was evaluated to determine its ability to bind selectively to and then react chemoselectively with TTR over the 4000+ other proteins in human blood plasma. Compound A2 (10.8 μM) was incubated with human blood plasma (TTR concentration is 3.6-5.4 μM) for 24 hours at 37° C. before immunoisolating human TTR using a Sepharose® resin-conjugated anti-TTR polyclonal antibody [Purkey et al., Proc. Natl. Acad. Sci. U.S.A. 2001, 98, 5566-5571].
# The modification ratio of TTR by kinetic stabilizers in human plasma was evaluated as described [Purkey et al., Proc. Natl. Acad. Sci. U.S.A. 98:5566-5571 (2001)] with minor modifications. Briefly, compounds (7.5 μL of 1.44 mM solution in DMSO) were added to 1 mL of human plasma and incubated at 37° C. for 24 hours on a rocker (30 rpm). A 1:1 (v/v) slurry of unfunctionalized Sepharose® resin in 10 mM Tris, 140 mM NaCl, pH 8.0 (TSA) was added and the solutions were incubated for 1 hour at 4° C. on a rocker plate, followed by brief centrifugation.
# Two 400 μL aliquots of the supernatants were added to 300 μL of 1:1 (v:v) slurry of anti-TTR antibody-conjugated Sepharose® resin in TSA. The solutions were gently rocked at 4° C. for 20 minutes (30 rpm), centrifuged, and supernatants were removed. The resin was washed by shaking for 1 minute in 1 mL of TSA solution containing 0.05% saponin (three times) and then 1 mL of TSA solution (twice). The TTR and bound test compound were dissociated from the resin by adding 155 μL of triethylamine (100 mM, pH 11.5) and vortexing for 1 minute. After centrifugation, 135 μL of solution containing test compound and TTR was analyzed by RP-HPLC as described above except that the linear gradients were run from 100:0 to 0:100 A:B for 45 minutes.
# [3] = molecular target: T3, V30M-TTR (Homo sapiens, UniProt P02766, V50M); assay: Acid-mediated V30M-TTR fibril formation assay (turbidity at 400 nm); type: biochemical; details: pH 4.4, 72 hours, 37° C.; for % Fibril Formation 7.2 μM (V30M-TTR): compound 7.2 μM; for % Fibril Formation […] (V30M-TTR): compound […]
# T3 construct: composed of 127-residue β-sheet-rich subunits; made in house
# Procedure: Compounds (5 μL of 1.44 mM solution in DMSO) were added to 495 μL of TTR (7.2 μM, in 10 mM sodium phosphate, 100 mM KCl, 1 mM EDTA, pH 7.0). The mixtures were vortexed and incubated (maintained) for 18 hours at 25° C. […] The solutions were vortexed to evenly distribute any precipitate, and turbidity was measured at 400 nm using a Hewlett Packard model 8453 UV-VIS Spectrophotometer.
# [4] = molecular target: T4, K15A-TTR (Homo sapiens, UniProt P02766, K35A); assay: RP-HPLC analysis of reaction with K15A-TTR homotetramer; type: binding
# T4 construct: composed of 127-residue β-sheet-rich subunits; made in house
# Source text: A strictly analogous study performed with the K15A homotetrameric TTR mutant confirmed that K15 was essential for the observed chemoselective reaction between TTR and Compounds […] (FIG. 1A, bottom trace). […] However, it is important to note that Compounds 1-3 were only slightly less chemoselective (<5% reaction with K15A).
# The ability of compounds A1 and A2, auxochromic analogs of previously discussed stilbenes [Klabunde et al., Nat. Struct. Biol. 2000, 7, 312-321; Connelly et al., Curr. Opin. Struc. Biol. 2010, 20, 54-62; Johnson et al., J. Med. Chem. 2008, 51, 6348-6358; Choi et al., J. Am. Chem. Soc. 2010, 132, 1359-1370; Choi et al., Nat. Chem. Biol. 2010, 6, 133-139; and Baures et al., Bioorg. Med. Chem. 1998, 6, 1389-1401] to form a chemoselective amide bond with the K15 residue of TTR was assessed by reverse-phase-HPLC and liquid chromatography-mass spectrometry analysis. […] The binding of the covalent modifier A2 to K15A-TTR (in the absence of amide bond conjugation) was confirmed by incubating A2 with K15A-TTR in phosphate buffer (pH 7) followed by K15A immunoisolation using a Sepharose® resin-conjugated anti-TTR polyclonal antibody [Purkey et al., Proc. Natl. Acad. Sci. U.S.A. 2001, 98, 5566-5571].
# Recombinant WT-TTR was expressed as described previously [Lashuel et al., Biochemistry 38:13560-13573 (1999)]. For analysis of test compounds with TTR, each compound (1.5 μL in DMSO, 1.44 mM) was added to 300 μL of WT-TTR or K15A mutant TTR (3.6 μM, 10 mM sodium phosphate, 100 mM KCl, 1 mM EDTA, pH 7.0). The samples were vortexed, and incubated for 18 hours at 25° C. Reverse phase high performance liquid chromatography (RP-HPLC) was performed on a Water 600 E multi-solvent delivery system, using a Waters 486 tunable absorbance detector, a 717 autosampler, and a ThermoHypersil Keystone Betabasic-18 column μ150 Å pore size, 3 μm particle size, and mobile phase A; 0.1% TFA in 95% H2O+5% CH3CN and mobile phase B, 0.1% TFA in 95% CH3CN+5% H2O). Linear gradients were run from 100:0 to 0:100 A:B for 27 minutes.
# [5] = molecular target: T1, WT-TTR; assay: Fluorimetric assay with recombinant WT-TTR; type: binding
# Procedure: WT-TTR was expressed in an E. coli expression system and purified as described previously. […] The samples were vortexed, and incubated for 18 h at 25° C. […] The excitation slit was set at 5 nm and the emission slit was set at […]. The samples were excited at 328 nm and the emission spectra were collected from 350 to 550 nm. WT-TTR was expressed and purified from an E. coli expression system as described previously. [Lashuel et al., Biochemistry 1999, 38:13560]. […] The samples were vortexed, and incubated for 18 hours at 25° C. […] The excitation slits was set at 5 nm and the emission slits was set at […]. The samples were excited at 328 nm and the emission spectra were collected from 330 to 550 nm (FIG. 4). The time-dependent fluorescence changes were monitored in similar manner (FIG. 5).
# [6] = molecular target: T4, K15A-TTR; assay: Fluorimetric assay with recombinant K15A-TTR; type: binding; details: 24 hour incubation
# Procedure: [The source words this procedure for another variant and says it was used here with some conditions changed.] The excitation spectra are shown with dotted traces (λmax=328 nm), and emission spectra are adjacently (λmax=384 nm). Very low fluorescence resulted from 328 nm excitation of stilbene Compounds 4 or 2 alone in buffer (FIGS. 4A and 4B; traces substantially on the X-axis).
# WT-TTR was expressed in an E. coli expression system and purified as described previously. [Lashuel et al., Biochemistry 1999, 38, 13560-13573] The covalent TTR modifiers (A1 or A2) or the non-covalent TTR ligand B2 (5 μL of a 1.44 mM solution in DMSO, final concentration: 7.2 μM) were added to 1 mL of a solution of WT-TTR homotetramer (0.2 mg/mL, 3.6 μM) in 10 mM phosphate, 100 mM KCl and 1 mM EDTA (pH 7.0 phosphate buffer) in a 2 mL Eppendorf tube. The samples were vortexed, and incubated for 18 h at 25° C. The fluorescence changes were monitored using a Varian Cary 50 spectrofluorometer at 20° C. in a 1 cm path length quartz cell. The excitation slit was set at 5 nm and the emission slit was set at […]. The samples were excited at 328 nm and the emission spectra were collected from 350 to 550 nm.
# WT-TTR was expressed and purified from an E. coli expression system as described previously. [Lashuel et al., Biochemistry 1999, 38:13560]. The covalent modifiers (Compounds 4 or 2) or the non-covalent TTR ligand Compound B2 (5 μL of a 1.44 mM solution in DMSO) were added to 1 mL of a solution of WT-TTR (0.2 mg/mL, 3.6 μM) in 10 mM phosphate, 100 mM KCl and 1 mM EDTA (pH 7.0) in a 2 mL Eppendorf tube. The samples were vortexed, and incubated for 18 hours at 25° C. The fluorescence changes were monitored using a Varian Cary 50 spectrofluorometer at 20° C. in a 1 cm path length quartz cell. The excitation slits was set at 5 nm and the emission slits was set at […]. The samples were excited at 328 nm and the emission spectra were collected from 330 to 550 nm (FIG. 4). The time-dependent fluorescence changes were monitored in similar manner (FIG. 5).
IC50 ([1]; WT-TTR 3.6 μM),% Fibril Formation 7.2 μM (WT-TTR) ([1]; WT-TTR […]),% Fibril Formation […] (WT-TTR) ([1]; WT-TTR […]),% Modification of TTR subunits in Human Blood Plasma [2],% Fibril Formation 7.2 μM (V30M-TTR) [3],% Fibril Formation […] (V30M-TTR) [3],reaction with K15A-TTR (in words) [4],SMILES,other results
1960 to 2260 nM,2%,12%,36% (±0.4%),3%,17%,,"O=C(Sc1ccccc1)c1cccc(/C=C/c2cc(Br)c(O)c(Br)c2)c1 [Compound 1, (E)-S-phenyl 3-(3,5-dibromo-4-hydroxystyryl)benzothioate]",IC50 ([1]; WT-TTR […]): 2000 nM
1960 to 2260 nM,4%,21%,49% (±0.7%),3%,33%,,"Cc1cc(/C=C/c2cccc(C(=O)Oc3ccccc3[N+](=O)[O-])c2)cc(C)c1O [Compound 3, (E)-2-nitrophenyl 3-(4-hydroxy-3,5-dimethylstyryl)benzoate]",
,,,,,,more non-chemoselective conjugation,Cc1cc(/C=C/c2ccc(C(=O)Oc3ccccc3[N+](=O)[O-])cc2)cc(C)c1O [Compound 6],
,,,,,,no conjugation,"Cc1cc(/C=C/c2cc(C(=O)Oc3ccc(F)cc3)cc(N(C)C)c2)cc(C)c1O [Compound A1, (E)-4-fluorophenyl 3-(dimethylamino)-5-(4-hydroxy-3,5-dimethylstyryl)benzoate]","fluorescence after incubation with WT-TTR (in words) ([5]; phosphate buffer pH 7, 18 hours): bright blue fluorescence"
,,,,,,,"CCCNC(=O)c1cccc(/C=C/c2cc(C)c(O)c(C)c2)c1 [Compound B1, (E)-3-(4-hydroxy-3,5-dimethylstyryl)-N-propylbenzamide]","increase in fluorescence intensity upon binding to K15A-TTR [6]: about 190 fold; time for binding to WT-TTR [5]: ≤ 1 min; increase in fluorescence intensity with WT-TTR vs compound alone in buffer ([5]; WT-TTR […], compound 7.2 μM, 24 hours): about 400 fold; increase in fluorescence intensity with WT-TTR within 1 minute vs compound alone in buffer ([5]; time-dependent emission spectra): about 360 fold"
